Measurements: PubChem BioAssay (NCI)
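1) Cells in 96-well plates. 2) Compound, 48 h, 5 concentrations. 3) Linear interpolation between surrounding doses. 4) Unreached endpoint = highest concentration. The concentration for 50% growth inhibition is given as GI50. TGI is the concentration that stops growth completely.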

How the values were obtained:
Test in all cases: NCI-60 cell line screen, 48 h
[1] = tested on: SK-MEL-28 melanoma
[2] = tested on: SK-MEL-2 melanoma
[3] = tested on: EKVX NSCLC
[4] = tested on: PC-3 prostate
[5] = tested on: SF-268 CNS
[6] = tested on: HOP-92 NSCLC
[7] = tested on: U251 CNS
[8] = tested on: SNB-75 CNS
[9] = tested on: SK-MEL-5 melanoma
[10] = tested on: OVCAR-8 ovarian
[11] = tested on: T-47D breast
[12] = tested on: A498 renal
[13] = tested on: K-562 leukemia
[14] = tested on: COLO 205 colon
[15] = tested on: MDA-MB-468 breast
[16] = tested on: MOLT-4 leukemia
[17] = tested on: NCI-H226 lung
[18] = tested on: UACC-62 melanoma
[19] = tested on: OVCAR-5 ovarian
[20] = tested on: NCI-H460 lung
[21] = tested on: HCC-2998 colon
[22] = tested on: MCF7 breast
[23] = tested on: A549 NSCLC
[24] = tested on: MDA-MB-231 breast
[25] = tested on: OVCAR-4 ovarian
[26] = tested on: RXF 393 renal
[27] = tested on: SF-295 CNS
[28] = tested on: SN12C renal
[29] = tested on: BT-549 breast
[30] = tested on: MDA-MB-435
[31] = tested on: MALME-3M melanoma
[32] = tested on: SK-OV-3 ovarian
[33] = tested on: KM12 colon
[34] = tested on: SNB-19 CNS
[35] = tested on: HOP-62 NSCLC
[36] = tested on: HS 578T breast
[37] = tested on: 786-0 renal
[38] = tested on: HT29 colon
[39] = tested on: RPMI-8226 leukemia
[40] = tested on: OVCAR-3 ovarian
[41] = tested on: NCI-H522 lung
[42] = tested on: UO-31 renal
[43] = tested on: CCRF-CEM leukemia
[44] = tested on: HL-60(TB) leukemia
[45] = tested on: HCT-116 colon
[46] = tested on: SF-539 CNS
[47] = tested on: NCI-H23 lung
[48] = tested on: NCI/ADR-RES ovarian
[49] = tested on: CAKI-1 renal
[50] = tested on: TK-10 renal
[51] = tested on: LOX IMVI melanoma
[52] = tested on: UACC-257 melanoma
[53] = tested on: HCT-15 colon
[54] = tested on: SW-620 colon
[55] = tested on: IGROV1 ovarian
[56] = tested on: DU-145 prostate
[57] = tested on: ACHN renal
[58] = tested on: M14 melanoma
[59] = tested on: SR leukemia

Q: Which results are given for `N/C(=N\c1nc2ccccc2s1)NC(=O)Nc1ccccc1[N+](=O)[O-]`?
A: GI50 [1]: 1.2 µM; TGI [1]: 20.6 µM; GI50 [2]: 0.0329 µM; TGI [2]: 3.02 µM; GI50 [3]: 0.248 µM; TGI [3]: 17.9 µM; GI50 [4]: 0.143 µM; TGI [4]: 28.8 µM; GI50 [5]: 2.36 µM; TGI [5]: 36.8 µM; GI50 [6]: 4.58 µM; TGI [6]: 26.3 µM; GI50 [7]: 0.0555 µM; TGI [7]: 14 µM; GI50 [8]: 0.0363 µM; TGI [8]: 12.5 µM; GI50 [9]: 0.0527 µM; TGI [9]: 1.59 µM; GI50 [10]: 0.201 µM; TGI [10]: 9.44 µM; GI50 [11]: 0.538 µM; TGI [11]: 25.7 µM; GI50 [12]: 17.2 µM; TGI [12]: 32.8 µM; GI50 [13]: 0.0424 µM; TGI [13]: > 100 µM; GI50 [14]: 0.169 µM; TGI [14]: 0.781 µM; GI50 [15]: 0.228 µM; TGI [15]: 0.573 µM; GI50 [16]: 0.195 µM; TGI [16]: > 51.3 µM; GI50 [17]: 0.571 µM; TGI [17]: 9.26 µM; GI50 [18]: 0.0459 µM; TGI [18]: 14 µM; GI50 [19]: 0.376 µM; TGI [19]: 13.1 µM; GI50 [20]: 0.0568 µM; TGI [20]: 6.76 µM; GI50 [21]: 0.203 µM; TGI [21]: 6.1 µM; GI50 [22]: 0.168 µM; TGI [22]: 12.6 µM; GI50 [23]: 0.346 µM; TGI [23]: 16.9 µM; GI50 [24]: 0.139 µM; TGI [24]: 4.66 µM; GI50 [25]: 8.07 µM; TGI [25]: 42.5 µM; GI50 [26]: 0.0472 µM; TGI [26]: 0.499 µM; GI50 [27]: 0.055 µM; TGI [27]: 10.8 µM; GI50 [28]: 0.258 µM; TGI [28]: 12.7 µM; GI50 [29]: 0.202 µM; TGI [29]: 6.56 µM; GI50 [30]: 0.0242 µM; TGI [30]: 0.0728 µM; GI50 [31]: 0.103 µM; TGI [31]: 16.7 µM; GI50 [32]: 0.236 µM; TGI [32]: 31.1 µM; GI50 [33]: 0.0605 µM; TGI [33]: 14 µM; GI50 [34]: 0.151 µM; TGI [34]: 19.6 µM; GI50 [35]: 0.104 µM; TGI [35]: 19.6 µM; GI50 [36]: 0.0615 µM; TGI [36]: 18.7 µM; GI50 [37]: 0.186 µM; TGI [37]: 13.6 µM; GI50 [38]: 0.0621 µM; TGI [38]: 0.645 µM; GI50 [39]: 0.341 µM; TGI [39]: > 59.9 µM; GI50 [40]: 0.0514 µM; TGI [40]: 9.13 µM; GI50 [41]: 0.033 µM; TGI [41]: 0.363 µM; GI50 [42]: 0.244 µM; TGI [42]: 17.1 µM; GI50 [43]: 0.0555 µM; TGI [43]: 16.6 µM; GI50 [44]: 0.0341 µM; TGI [44]: > 100 µM; GI50 [45]: 0.0431 µM; TGI [45]: 6.06 µM; GI50 [46]: 0.0399 µM; TGI [46]: 0.273 µM; GI50 [47]: 0.266 µM; TGI [47]: 16.8 µM; GI50 [48]: 0.045 µM; TGI [48]: 0.345 µM; GI50 [49]: 0.0635 µM; TGI [49]: 16.1 µM; GI50 [50]: 12.9 µM; TGI [50]: 28.4 µM; GI50 [51]: 0.0698 µM; TGI [51]: 11.6 µM; GI50 [52]: 12.2 µM; TGI [52]: 25 µM; GI50 [53]: 0.0482 µM; TGI [53]: 11.3 µM; GI50 [54]: 0.0529 µM; TGI [54]: 19.5 µM; GI50 [55]: 0.108 µM; TGI [55]: 12.7 µM; GI50 [56]: 0.327 µM; TGI [56]: 13.4 µM; GI50 [57]: 0.111 µM; TGI [57]: 16.3 µM

Q: Which results are given for `COc1ccc(C(=O)/C=C/c2ccc(OCc3ccc(F)cc3)c(OC)c2)cc1OC`?
A: GI50 [1]: 29.3 µM; TGI [1]: > 100 µM; GI50 [2]: 13.4 µM; TGI [2]: 47.6 µM; GI50 [58]: 22.6 µM; TGI [58]: > 100 µM; GI50 [3]: 5.19 µM; TGI [3]: > 100 µM; GI50 [4]: 6.1 µM; TGI [4]: > 100 µM; GI50 [5]: 12 µM; TGI [5]: > 100 µM; GI50 [6]: 7.53 µM; TGI [6]: > 100 µM; GI50 [7]: 3.79 µM; TGI [7]: > 100 µM; GI50 [8]: 17.3 µM; TGI [8]: 99.2 µM; GI50 [9]: 10.4 µM; TGI [9]: 29 µM; GI50 [10]: 3.46 µM; TGI [10]: > 100 µM; GI50 [11]: 5.34 µM; TGI [11]: > 100 µM; GI50 [12]: 26.1 µM; TGI [12]: > 100 µM; GI50 [13]: 3.72 µM; TGI [13]: > 100 µM; GI50 [14]: 7.93 µM; TGI [14]: > 100 µM; GI50 [15]: 2.74 µM; TGI [15]: > 100 µM; GI50 [16]: 4.07 µM; TGI [16]: > 100 µM; GI50 [17]: 4.7 µM; TGI [17]: > 100 µM; GI50 [18]: 4.41 µM; TGI [18]: > 100 µM; GI50 [19]: 3.32 µM; TGI [19]: > 100 µM; GI50 [20]: 5.88 µM; TGI [20]: > 100 µM; GI50 [21]: 3 µM; TGI [21]: 16.4 µM; GI50 [22]: 3.04 µM; TGI [22]: > 100 µM; GI50 [23]: 4.81 µM; TGI [23]: > 100 µM; GI50 [59]: 3.18 µM; TGI [59]: > 100 µM; GI50 [24]: 3.95 µM; TGI [24]: > 100 µM; GI50 [25]: 3.94 µM; TGI [25]: > 100 µM; GI50 [27]: 3.99 µM; TGI [27]: > 100 µM; GI50 [28]: 2.95 µM; TGI [28]: > 100 µM; GI50 [29]: 3.62 µM; TGI [29]: 60 µM; GI50 [30]: 5.06 µM; TGI [30]: 60.9 µM; GI50 [31]: 27.5 µM; TGI [31]: > 100 µM; GI50 [32]: 34.8 µM; TGI [32]: > 100 µM; GI50 [33]: 4.31 µM; TGI [33]: > 100 µM; GI50 [34]: 4.11 µM; TGI [34]: > 100 µM; GI50 [35]: 3.55 µM; TGI [35]: > 100 µM; GI50 [36]: 23 µM; TGI [36]: > 100 µM; GI50 [37]: 30 µM; TGI [37]: > 100 µM; GI50 [38]: 3.02 µM; TGI [38]: > 100 µM; GI50 [39]: 2.7 µM; TGI [39]: > 100 µM; GI50 [40]: 4.64 µM; TGI [40]: > 100 µM; GI50 [41]: 3.39 µM; TGI [41]: 71.6 µM; GI50 [42]: 3.7 µM; TGI [42]: > 100 µM; GI50 [43]: 3.49 µM; TGI [43]: > 100 µM; GI50 [44]: 10.4 µM; TGI [44]: > 100 µM; GI50 [45]: 3.57 µM; TGI [45]: > 100 µM; GI50 [46]: 3.36 µM; TGI [46]: 16.7 µM; GI50 [47]: 4.44 µM; TGI [47]: 79.3 µM; GI50 [48]: 2.86 µM; TGI [48]: 16.2 µM; GI50 [49]: 6.01 µM; TGI [49]: > 100 µM; GI50 [50]: 14.3 µM; TGI [50]: > 100 µM; GI50 [51]: 3.06 µM; TGI [51]: > 100 µM; GI50 [52]: 23.2 µM; TGI [52]: > 100 µM; GI50 [53]: 3.09 µM; TGI [53]: > 100 µM; GI50 [54]: 3.8 µM; TGI [54]: > 100 µM; GI50 [55]: 3.88 µM; TGI [55]: > 100 µM; GI50 [56]: 5.64 µM; TGI [56]: > 100 µM; GI50 [57]: 6.46 µM; TGI [57]: > 100 µM
